Test results taken from patent US20110224300A1, “USE OF POTASSIUM 2-(a- HYDROXYPENTYL) BENZOATE IN THE MANUFACTURE OF MEDICAMENTS FOR PREVENTING AND/OR TREATING SENILE [sequence]” (Institute of Mataria Medica, Chinese Academy of Me, priority 2008, published 2011).
Marks after values point to notes of the source that are not given here.

Tests used:
[1] = test system: permanent 2-VO rats (chronic cerebral hypoperfusion); assay: Morris water maze in permanent 2-VO (BCCAO) rats; assay type: in vivo, rat; settings: for probe trial: time in the platform quadrant and time to cross the platform location / escape latency in the water maze task: 2-VO rats; for probe trial: time in the platform quadrant and time to cross the platform location: compared to 2-VO animals; for escape latency in the water maze task: vs vehicle
Description: Chronic cerebral hypoperfusion was proceeded by a permanent, bilateral occlusion of the common carotid arteries (2-VO) of adult rats. The rats were anesthetized with 10% trichloro-acetaldehyde, and temperature probe was inserted into the rectum, and a separate heating lamp was used to maintain rectal temperature at normothermic level. After a midline neck skin incision, the common carotid artery were exposed and ligated by a 5-0 nylon suture.
Rats were randomly divided into six experimental groups (20 rats/each group): one sham-operated group, one vehicle control group, one piracetam-treated group (600 mg/kg), and three dl-PHPB-treated groups (13, 39, and 129 mg/kg). In 10 days after onset of 2-VO, drugs and vehicle were administered orally to rats for 21 days (one time/each day). The spatial learning and memory capability of rats were detected by Morris water maze in the 25-30 days after operation. The Morris water test was commenced at 40 min after drugs treated. The biochemical and pathology assays were conducted later (in 24 h) after behavioral tests.
Subjects were tested in a Morris water maze. This test is based on a standardized assessment of spatial learning ability. The water maze apparatus consisted of a circular, stainless pool (120 cm in diameter, 60 cm in height). It was placed in a dimly lit, sound-proof test room. Multiple distant cues around the room (window, cabinets, furniture) were kept in the same location throughout the experiments. The water was filled to a depth of 40 cm at 25±1° C. and was made opaque by adding milk powder to prevent visualization of the platform. A transparent platform (10 cm diameter) was put 1.5 cm below the surface of the water. The tank was divided into four quadrants with the platform in a fixed position in one quadrant. The subjects were placed into the maze facing the pool wall and were allowed two trials per day, 60 s per trial, to find the hidden platform. If the subject found the platform within the 60 s, it was given a 10-s rest period on the platform between trials. If the pedestal was not located within the time allotted, the subject was placed on to the platform and allowed 10 s until the next trial. The escape latency (time to reach the platform) was used to assess acquisition of the water maze task. Sessions were repeated for five consecutive days. On the sixth day, the platform was removed and the rat was allowed to search for the platform for 60 s (probe test). The time in the platform quadrant and latency time to cross platform location were recorded to measure the spatial learning ability without the influence of chance encounters with the platform. The Morris water maze sessions were recorded with a video camera for offline analysis.

SAMP8 mice = assay: Water maze test (blind sides) in SAMP8 mice; assay type: in vivo
Protocol: SAMP8 were divided into three experimental groups randomly: one vehicle control group, and two dl-PHPB-treated groups (50, and 160 mg/kg). Drugs and vehicle were administered orally to SAMP8 mice for 35 days (one time/each day). The spatial learning and memory abilities of SAMP8 mice were detected by Morris water maze and DTT-2 jumping apparatus in 31-35 days. The testing was commenced at 40 min after drugs treated. The biochemical and pathology assays conducted later (in 24 h) after behavioral testing.
The water maze consisted of square black opaque plastic box (80 cm×50 cm×20 cm), of which four blind-side and a terminal stage. When a black plastic sheet (15 cm×20 cm) was placed in different locations, there were different the starting points and different number of blind side. The water maze filled with water at 25±1° C. to a depth 12 cm. Mice can be placed in different starting point, making experience with different number of blind side to the end. The number of errors into the blind side and the time to reach the end platform (escape latency) was recorded.
Each mouse was permitted to stay there for 5 s and place in the pool, allowed 3 min to find the end platform. The escape latency (time to reach the platform) was used to assess acquisition of the water maze task. Sessions was repeated for 4 consecutive days.

[2] = dl-PHPB 13 mg/kg, 1st of 5 M/R/T/L column groups (day not printed)
[3] = dl-PHPB 13 mg/kg, 2nd of 5 M/R/T/L column groups (day not printed)
[4] = dl-PHPB 13 mg/kg, 3rd of 5 M/R/T/L column groups (day not printed)
[5] = dl-PHPB 13 mg/kg, 4th of 5 M/R/T/L column groups (day not printed)
[6] = dl-PHPB 13 mg/kg, 5th of 5 M/R/T/L column groups (day not printed)
[7] = dl-PHPB 39 mg/kg, 1st of 5 M/R/T/L column groups (day not printed)
[8] = dl-PHPB 39 mg/kg, 2nd of 5 M/R/T/L column groups (day not printed)
[9] = dl-PHPB 39 mg/kg, 3rd of 5 M/R/T/L column groups (day not printed)
[10] = dl-PHPB 39 mg/kg, 4th of 5 M/R/T/L column groups (day not printed)
[11] = dl-PHPB 39 mg/kg, 5th of 5 M/R/T/L column groups (day not printed)
[12] = dl-PHPB 129 mg/kg, 1st of 5 M/R/T/L column groups (day not printed)
[13] = dl-PHPB 129 mg/kg, 2nd of 5 M/R/T/L column groups (day not printed)
[14] = dl-PHPB 129 mg/kg, 3rd of 5 M/R/T/L column groups (day not printed)
[15] = dl-PHPB 129 mg/kg, 4th of 5 M/R/T/L column groups (day not printed)
[16] = dl-PHPB 129 mg/kg, 5th of 5 M/R/T/L column groups (day not printed)

Structure (SMILES): CCCCC(O)c1ccccc1C(=O)[O-].[K+] (racemic) [dl-PHPB, Potassium 2-(1-Hydroxypentyl)-benzoate]
- probe trial: time in the platform quadrant and time to cross the platform location ([1]; 13 mg/kg orally 21 days): markedly showed ameliorative effect
- escape latency in the water maze task ([1]; 13 mg/kg orally daily for 21 days): did not differ from the vehicle control animals
- probe trial: time in the platform quadrant and time to cross the platform location ([1]; 39 mg/kg orally 21 days): markedly showed ameliorative effect
- escape latency in the water maze task ([1]; 39 mg/kg orally daily for 21 days): significantly rescued learning impairment
- escape latency in the water maze task ([1]; 129 mg/kg orally daily for 21 days): significantly rescued learning impairment
- search strategy times, linear mode (L) [1, 2]: 1
- search strategy times, marginal mode (M) [1, 2]: 11
- search strategy times, random mode (R) [1, 2]: 13
- search strategy times, tendency mode (T) [1, 2]: 11
- search strategy times, linear mode (L) [1, 3]: 6
- search strategy times, marginal mode (M) [1, 3]: 3
- search strategy times, random mode (R) [1, 3]: 11
- search strategy times, tendency mode (T) [1, 3]: 16
- search strategy times, linear mode (L) [1, 4]: 5
- search strategy times, marginal mode (M) [1, 4]: 0
- search strategy times, random mode (R) [1, 4]: 10
- search strategy times, tendency mode (T) [1, 4]: 21
- search strategy times, linear mode (L) [1, 5]: 7
- search strategy times, marginal mode (M) [1, 5]: 0
- search strategy times, random mode (R) [1, 5]: 9
- search strategy times, tendency mode (T) [1, 5]: 20
- search strategy times, linear mode (L) [1, 6]: 4
- search strategy times, marginal mode (M) [1, 6]: 0
- search strategy times, random mode (R) [1, 6]: 5
- search strategy times, tendency mode (T) [1, 6]: 26
- search strategy times, linear mode (L) [1, 7]: 2
- search strategy times, marginal mode (M) [1, 7]: 7
- search strategy times, random mode (R) [1, 7]: 15
- search strategy times, tendency mode (T) [1, 7]: 12
- search strategy times, linear mode (L) [1, 8]: 4
- search strategy times, marginal mode (M) [1, 8]: 3
- search strategy times, random mode (R) [1, 8]: 9
- search strategy times, tendency mode (T) [1, 8]: 18
- search strategy times, linear mode (L) [1, 9]: 3
- search strategy times, marginal mode (M) [1, 9]: 1
- search strategy times, random mode (R) [1, 9]: 13
- search strategy times, tendency mode (T) [1, 9]: 17
- search strategy times, linear mode (L) [1, 10]: 9
- search strategy times, marginal mode (M) [1, 10]: 0
- search strategy times, random mode (R) [1, 10]: 7
- search strategy times, tendency mode (T) [1, 10]: 18
- search strategy times, linear mode (L) [1, 11]: 17*
- search strategy times, marginal mode (M) [1, 11]: 0
- search strategy times, random mode (R) [1, 11]: 4
- search strategy times, tendency mode (T) [1, 11]: 13
- search strategy times, linear mode (L) [1, 12]: 4
- search strategy times, marginal mode (M) [1, 12]: 4
- search strategy times, random mode (R) [1, 12]: 16
- search strategy times, tendency mode (T) [1, 12]: 10
- search strategy times, linear mode (L) [1, 13]: 1
- search strategy times, marginal mode (M) [1, 13]: 2
- search strategy times, random mode (R) [1, 13]: 12
- search strategy times, tendency mode (T) [1, 13]: 19
- search strategy times, linear mode (L) [1, 14]: 6
- search strategy times, marginal mode (M) [1, 14]: 0
- search strategy times, random mode (R) [1, 14]: 7
- search strategy times, tendency mode (T) [1, 14]: 21
- search strategy times, linear mode (L) [1, 15]: 7
- search strategy times, marginal mode (M) [1, 15]: 1
- search strategy times, random mode (R) [1, 15]: 5
- search strategy times, tendency mode (T) [1, 15]: 20
- search strategy times, linear mode (L) [1, 16]: 9
- search strategy times, marginal mode (M) [1, 16]: 0
- search strategy times, random mode (R) [1, 16]: 2
- search strategy times, tendency mode (T) [1, 16]: 23
- number of errors into the blind-side (SAMP8 mice; 50 mg/kg oral, fifth test, vehicle 6.1±1.1, P<0.05): 3.1±0.9
- escape latency time (SAMP8 mice; 50 mg/kg, last test, P<0.01 vs vehicle): significantly shorten the escape latency time
- number of errors into the blind-side (SAMP8 mice; 160 mg/kg oral, fifth test, vehicle 6.1±1.1, P<0.05): 2.7±0.3
- escape latency time (SAMP8 mice; 160 mg/kg, fourth training, P<0.05): significantly shortened the escape latency time
- escape latency time (SAMP8 mice; 160 mg/kg, last test, P<0.01 vs vehicle): significantly shorten the escape latency time
- escape latency time (SAMP8 mice; first and second trainings, each group): no significant difference
- number of errors into the blind-side (SAMP8 mice; first three trainings, vs vehicle): no significant difference
- number of errors into the blind-side (SAMP8 mice; fourth training, vs vehicle, dose not specified): significantly decreased the number of errors
- escape latency time (SAMP8 mice; third training): tendency of the shorter escape latency
